One assay addresses Acetylcholinesterase (Electrophorus electricus, UniProt O42275).
A further assay addresses Cholinesterase (Equus caballus, UniProt P81908).
Assay [1] deals with Cholinesterase (Equus caballus) (UniProt P81908). Description: Mixed reversible inhibition of equine serum BuChE assessed as decrease in Vmax and increase in Km at 3.13 to 12.5 uM by Lineweaver-burk plot analysis. Particulars: dose 3.13-12.5 µM.
Assay [2] shares this target. In words: Mixed reversible inhibition of equine serum BuChE assessed as decrease in Vmax and increase in Km at 1.56 to 6.25 uM by Lineweaver-burk plot analysis. Particulars: dose 1.56-6.25 µM.
For assay [3] the target is unchanged. Description: Potency index,ratio of isatin IC50 to test compound IC50 for inhibition of equine serum BuChE.

Calls of active or inactive are those of the source. No cut-off for these calls is given here. A value given as a limit tells only on which side of the number the result lay.

One may read the IC50 as the concentration that gives 50% inhibition.

Acetylcholinesterase, sequence (O42275 whole entry): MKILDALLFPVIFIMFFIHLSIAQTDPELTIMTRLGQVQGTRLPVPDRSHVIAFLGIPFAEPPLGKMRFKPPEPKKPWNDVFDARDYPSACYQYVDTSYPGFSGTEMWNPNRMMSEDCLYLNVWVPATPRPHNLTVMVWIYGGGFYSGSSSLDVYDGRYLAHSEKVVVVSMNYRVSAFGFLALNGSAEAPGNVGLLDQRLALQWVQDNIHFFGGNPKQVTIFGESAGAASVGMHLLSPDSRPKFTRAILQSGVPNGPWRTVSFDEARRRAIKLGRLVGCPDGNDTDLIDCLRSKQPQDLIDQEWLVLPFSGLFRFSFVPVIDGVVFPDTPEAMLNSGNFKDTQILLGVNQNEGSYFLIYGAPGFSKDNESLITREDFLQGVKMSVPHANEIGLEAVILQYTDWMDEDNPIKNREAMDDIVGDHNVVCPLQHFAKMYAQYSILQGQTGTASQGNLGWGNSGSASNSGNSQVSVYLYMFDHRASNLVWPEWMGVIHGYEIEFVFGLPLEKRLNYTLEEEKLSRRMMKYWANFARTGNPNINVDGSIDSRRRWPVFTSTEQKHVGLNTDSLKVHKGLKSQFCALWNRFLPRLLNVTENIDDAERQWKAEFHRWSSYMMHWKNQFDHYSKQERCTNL
Cholinesterase, sequence (P81908 whole entry): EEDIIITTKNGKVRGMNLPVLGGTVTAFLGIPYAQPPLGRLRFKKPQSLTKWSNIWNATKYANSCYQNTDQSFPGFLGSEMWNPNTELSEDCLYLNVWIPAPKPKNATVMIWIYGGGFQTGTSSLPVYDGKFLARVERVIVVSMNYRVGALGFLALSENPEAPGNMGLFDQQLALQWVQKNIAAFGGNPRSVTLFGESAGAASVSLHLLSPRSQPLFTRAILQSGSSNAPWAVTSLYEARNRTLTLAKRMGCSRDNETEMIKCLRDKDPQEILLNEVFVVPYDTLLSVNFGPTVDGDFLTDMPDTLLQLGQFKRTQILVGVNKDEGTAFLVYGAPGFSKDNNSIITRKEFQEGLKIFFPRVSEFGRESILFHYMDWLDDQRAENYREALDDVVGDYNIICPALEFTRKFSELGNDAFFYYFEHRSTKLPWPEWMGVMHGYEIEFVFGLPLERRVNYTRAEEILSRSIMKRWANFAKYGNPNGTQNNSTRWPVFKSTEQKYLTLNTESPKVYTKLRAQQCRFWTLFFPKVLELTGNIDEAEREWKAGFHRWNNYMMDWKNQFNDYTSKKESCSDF
Cholinesterase (Equus caballus), sequence (P81908 whole entry): as above
Description for Acetylcholinesterase: Inhibition of electric eel AChE by Ellman's method

For `O=C1C(=O)N(CCCCCN2C(=O)C(=O)c3ccccc32)c2ccccc21`, the IC50 is above 50 µM at Acetylcholinesterase and 7.56 µM against Cholinesterase.
Take `O=C1N(CCCCCCCN2C(=O)C(O)(c3c[nH]c4ccccc34)c3ccccc32)c2ccccc2C1(O)c1c[nH]c2ccccc12` (centres undefined): the results for the half-inhibitory concentration (IC50) on Acetylcholinesterase and at Cholinesterase were above 50 µM and 13.2 µM, respectively.
With `O=C1C(=O)N(CCCCN2C(=O)C(=O)c3ccccc32)c2ccccc21`, the IC50 at Acetylcholinesterase is above 125 µM; against Cholinesterase it was 34.7 µM.
With `O=C1Nc2ccccc2C1=O` [ISATIN], the IC50 against Acetylcholinesterase and against Cholinesterase was above 1000 µM in each case.
On to `O=C1N(CCCCN2C(=O)C(O)(c3c[nH]c4ccccc34)c3ccccc32)c2ccccc2C1(O)c1c[nH]c2ccccc12` (centres undefined), for which the concentration for half-maximal inhibition (IC50) on Acetylcholinesterase was above 50 µM; at Cholinesterase, 11.8 µM.
In the case of `O=C1N(CCCCCN2C(=O)C(O)(c3c[nH]c4ccccc34)c3ccccc32)c2ccccc2C1(O)c1c[nH]c2ccccc12` (centres undefined), the inhibition result in assay [1] was “Active”. The same molecule came in with an IC50 against Acetylcholinesterase above 50 µM.
In the case of `O=C1C(=O)N(CCN2C(=O)C(=O)c3ccccc32)c2ccccc21`, the half-inhibitory concentration (IC50) at Acetylcholinesterase and against Cholinesterase was above 125 µM in each case.
For the molecule `O=C1N(CCN2C(=O)C(O)(c3c[nH]c4ccccc34)c3ccccc32)c2ccccc2C1(O)c1c[nH]c2ccccc12` (centres undefined), the IC50 against Acetylcholinesterase and against Cholinesterase was above 50 µM each time.
Consider `O=C1C(=O)N(CCCCCCCN2C(=O)C(=O)c3ccccc32)c2ccccc21`, for which, in assay [2], the inhibition result was “Active”. The Ratio IC50 in assay [3] amounted to 300. Further, the IC50 was above 50 µM against Acetylcholinesterase and 3.2 µM on Cholinesterase.
On to `O=C1N(CCCCCCCCN2C(=O)C(O)(c3c[nH]c4ccccc34)c3ccccc32)c2ccccc2C1(O)c1c[nH]c2ccccc12` (centres undefined), for which the IC50 was above 50 µM on Acetylcholinesterase and above 25 µM on Cholinesterase.
For the molecule `O=C1C(=O)N(CCCCCCCCN2C(=O)C(=O)c3ccccc32)c2ccccc21`, the IC50 against Acetylcholinesterase and against Cholinesterase was above 50 µM in each case.
`O=C1N(CCCN2C(=O)C(O)(c3c[nH]c4ccccc34)c3ccccc32)c2ccccc2C1(O)c1c[nH]c2ccccc12` (centres undefined): the IC50 is above 50 µM against Acetylcholinesterase and 6.47 µM at Cholinesterase.
Turning to `O=C1C(=O)N(CCCN2C(=O)C(=O)c3ccccc32)c2ccccc21`, the IC50 against Acetylcholinesterase and against Cholinesterase was above 125 µM each time.
For the molecule `O=C1Nc2ccccc2C1(O)c1c[nH]c2ccccc12` (centres undefined), the IC50 on Acetylcholinesterase was determined as 1300 µM; at Cholinesterase it was 357 µM.
For `O=C1C(=O)N(CCCCCCN2C(=O)C(=O)c3ccccc32)c2ccccc21` the same measures were above 50 µM and above 50 µM.
For `O=C1N(CCCCCCN2C(=O)C(O)(c3c[nH]c4ccccc34)c3ccccc32)c2ccccc2C1(O)c1c[nH]c2ccccc12` (centres undefined), the IC50 against Acetylcholinesterase is above 50 µM; against Cholinesterase it was 14 µM.

These data come from ChEMBL document CHEMBL5150026, “Selective butyrylcholinesterase inhibition by isatin dimers and 3-indolyl-3-hydroxy-2-oxindole dimers” (Bioorg Med Chem Lett, 2022).
